Laboratory results as given in patent publication US8608919B2, “Impedimetric sensor and applications thereof” (Consejo Superior de Investigaciones Científicas, priority 2007, dated 2013).
Converted amounts (≈) assume the structure as drawn.

Experiments:
Assay type in all cases: binding, rabbits of the New Zealand variety
[1] = tested on: specific sulfamide antiserum (#155); experiment: Impedimetric immunosensor of the invention, competitive immunoassay calibrated with sulfapyridine; details: Sensor; [Ab] 1/2000; [AT] 0.8 μg/ml (2d-BSA); from four-parameter fit of calibration curve
Procedure: Before proceeding to the functionalization, the electrodes were cleaned in a solution of 70% absolute ethanol and 30% Milli-Q water. Afterwards, the devices were submerged in a solution of 2.5% NaOH and Milli-Q water for 10 minutes, followed by a rinsing in 100 mL of Milli-Q water, in order to neutralize the action of the NaOH. Finally, the electrodes were cleaned in ethanol and dried in nitrogen current.
The electrodes were introduced into a GPTS [(3-glycidoxipropil) trimethoxisilane] solution with 2.5% ethanol anhydride for three hours, at ambient temperature and with orbital agitation. After this time had passed, the devices were washed in ethanol and dried in nitrogen current. […]
Biological molecular receptors (antibodies) were designed and produced to analyse antibiotics from the family of sulfamides. […] The covalent bonding of the haptens or antigens and the quantification of the number of the remainder of antigens bonded to the protein was carried out by means of a mass spectrometer. […]
Sulfapyridine pattern solutions prepared in PBST (0.64 nM-50000 nM, in PBST) were added to the electrodes (150 μL/electrode), followed by a solution with the specific sulfamide antiserum (#155) obtained (1/2000 in PBST, 150 μL/electrode). […] The reaction was measured in a low conductivity solution. […]

[2] = tested on: specific sulfamide antiserum; experiment: ELISA immunoassay, calibration with sulfapyridine; details: [Ab] 1/8000, [AT] 0.625 μg/ml, from four-parameter fit of calibration curve
[3] = tested on: antiserums produced for sulphonamide-type antibiotics; experiment: Direct ELISA format with HRP enzymatic tracers of competition haptens (preliminary studies)
Source text: Biological molecular receptors (antibodies) were designed and produced to analyse antibiotics from the family of sulfamides. The preparation of the biological receptors was approached by means of the design of immunization haptens using molecular modelling strategies. As a consequence of these studies, the synthesis of 2 haptens or antigens was proposed. One of them (hapten 1) kept the greater part of the structure of the sulfamides, while the second (hapten 2) was only a fragment which conserved the part common to most of the compounds of this family of antibiotics. The two haptens were combined to the HCH (horseshoe crab hemocyanin) protein and to the BSA (bovine serum albumin) protein by using methods described in the literature. The covalent bonding of the haptens or antigens and the quantification of the number of the remainder of antigens bonded to the protein was carried out by means of a mass spectrometer. Following this, rabbits of the New Zealand variety were immunised with these antigens by applying a six-month long immunisation protocol, during which the progress of the immune response was controlled by means of extracting small blood samples.
With the aim of evaluating the avidity of the antiserums produced by the sulphonamide-type antibiotics, it was necessary to establish a competitive-type immunochemical assay. […]

Row | IC50 [1] [µM] | IC50 [2] [µM] | IC50 [3] [ng/mL] | Compound
1 | 0.014 | 0.00929 |  | Nc1ccc(S(=O)(=O)Nc2ccccn2)cc1 [sulfapyridine]
2 |  |  | ~9 (≈ 0.036 µM) | Nc1ccc(S(=O)(=O)Nc2cnccn2)cc1 [sulfapyrazine]
